Measured values published in patent publication US5705630A, “2'-methylidenepyrimidine nucleoside compounds” (Yoshitomi Pharmaceutical Industries, Ltd., priority 1988, dated 1998).

Assay: solubility (general statement)
Assay type: physicochemical
Details: with respect to pharmaceutical production

## C=C1[C@H](n2ccc(N)nc2=O)O[C@H](CO)[C@H]1O [2'-deoxy-2'-methylidenecytidine]
  solubility: inferior in solubility
